Data from patent publication US20060014193A1, “Nucleoside phosphoramidates and nucleoside phosphoramidases” (priority 2004, published 2006).
Marks after values point to notes of the source that are not given here.

Legend:
[1] = molecular target: T1, E. coli Tuner(DE3)pLacI cell lysates (Escherichia coli, UniProt P0ACE7); assay: 31P NMR phosphoramidase activity in cell lysates; type: biochemical
T1 construct: Cell lysates from E. coli Tuner(DE3)pLacI cells (Novagen) were obtained by treatment with lysozyme; host or cells: E. coli Tuner(DE3)pLacI
T1 sequence (P0ACE7 whole entry): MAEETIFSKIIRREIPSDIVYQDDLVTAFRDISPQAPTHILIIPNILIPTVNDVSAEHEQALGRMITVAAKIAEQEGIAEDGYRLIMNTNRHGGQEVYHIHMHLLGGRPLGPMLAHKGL
Method: (§1) Phosphoramidase activity in cell lysates was measured by the ^1H-decoupling mode of phosphorus-31 NMR spectroscopy (Varian VAC-300 spectrometer), which can clearly distinguish the substrate, AMP-NH2, and the product, adenosine 5′-monophosphate (AMP). NMR spectrometry is suitable for quantitation by integration of the area under the peak, which is proportional to the amount of nuclei present. The relative ratio of peak areas can be used to calculate the amount of turnover corrected based on a standard curve.
Cell lysates from E. coli Tuner(DE3)pLacI cells (Novagen) were obtained by treatment with lysozyme (1 mg/ml) and the DNA was precipitated by protamine sulfate followed by centrifugation to remove cell debris. The supernatant was dialyzed extensively against Buffer A (20 mM Tris (pH 7.0); 1 mM EDTA; 1 mM DTT, 0.01 mM PMSF) to remove cellular phosphates and nucleotides. Phosphate free cell lysates (0.75 mg total protein) were incubated with 5 mM AMP-NH2 in 0.5 ml reaction buffer (0.5 mM MgCl2, 20 mM HEPES (pH 7.2)) at 37° C. for intervals of 15 min, 30 min, and 12 h. The reactions were terminated by snap freezing in a dry ice/acetone slush bath and lyophilized for 5 h. […] For the low pH control experiment, 10 mM AMP-NH2 in reaction buffer (500 μL, pH 2.0) was incubated at 37° C. for 12 h and the 31p signal was detected under the same conditions. […]

Yeast HNT = molecular target: T2, Yeast HNT (Saccharomyces cerevisiae, UniProt Q04344); details: Bieganowski et al, 2002; cited from earlier work
T2 sequence (Q04344 1-158): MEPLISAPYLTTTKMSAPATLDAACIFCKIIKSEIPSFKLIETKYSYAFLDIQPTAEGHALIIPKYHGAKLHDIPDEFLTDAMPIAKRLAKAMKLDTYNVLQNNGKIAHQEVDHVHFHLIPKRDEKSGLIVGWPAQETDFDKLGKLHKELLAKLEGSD

[2] = tested on: BB2-1 (-HINT) cell lysates; assay: 31P NMR phosphoramidase activity in cell lysates of hinT deletion strain; type: biochemical, E. coli
Method: as §1
(§2) Cell lysates from E. coli Tuner(DE3)pLacI cells (Novagen) were obtained by treatment with lysozyme (1 mg/ml) and the DNA was precipitated by protamine sulfate followed by centrifugation to remove cell debris. The supernatant was dialyzed extensively against Buffer A (20 mM Tris (pH 7.0); 1 mM EDTA; 1 mM DTT, 0.01 mM PMSF) to remove cellular phosphates and nucleotides. […] The reactions were terminated by snap freezing in a dry ice/acetone slush bath and lyophilized for 5 h. The samples were then dissolved in NMR buffer (600 μL, 50 mM EDTA, 20 mM HEPES (pH 7.2), and 1 mM TMP (trimethylphosphate, internal standard)) and the insoluble portion was spun down by centrifugation at 12,500×g for 5 min. A ^31P NMR spectrum was then collected for the supernatant. For the low pH control experiment, 10 mM AMP-NH2 in reaction buffer (500 μL, pH 2.0) was incubated at 37° C. for 12 h and the 31p signal was detected under the same conditions.
The E. coli hinT gene in strain BW25113 was disrupted as previously described (Datsenko & Wanner, 2000, PNAS USA, 97:6640-6645). Plasmid pKD3 and primers 7024 and 7025 (Table 2) were used for amplification of the chloramphenicol resistance marker (Cm^r). Stable chloramphenicol resistant transformants of BW25113 were tested by PCR with primers 7026 and 7027 to confirm correct recombination of the Cm^r marker into the hinT locus. A strain that tested positive by PCR was named BB1. Strain BB3 was constructed by removing the antibiotic resistance marker using Red recombinase as described previously (Datsenko & Wanner, supra). The hinT gene was amplified from the chromosomal DNA of E. coli strain BW25113 with primers 7328 and 7329. The product of this reaction was cloned into Bluescript SK+ using EcoRI and BamHI sites included in the primers' sequences. The resulting plasmid was named pB429. […] Plasmids pB432 and pB433 were obtained by cloning HindIII-EcoRI fragments containing wild type and H101A mutated alleles of hinT from plasmids pB429 and pB431 into plasmid pACYC184. All E. coli transformations were performed by electroporation.
(§3) To determine if E. coli hinT is solely responsible of the observed lysates' phosphoramidase activity, a mutant strain, BB1, in which the hinT gene was replace with the chloramphenicol resistance marker, was constructed. The phosphoramidase activities of the wild-type E. coli BL21 Star strain and the mutant strain lysates were determined (Table 3). […] (Table 2). Therefore, the adenosine phosphoramidase activity observed for E. coli cell lysates appears to be totally dependent on hinT.

[3] = molecular target: T3, BL21 Star (WT) cell lysates (Escherichia coli, UniProt P0ACE7); assay: 31P NMR phosphoramidase activity in cell lysates; type: biochemical, E. coli; details: for Specific activity: 0.5 mg protein
T3 construct: endogenous in cells; host or cells: E. coli BL21 Star
T3 sequence (P0ACE7 whole entry): as the sequence (P0ACE7 whole entry) above
Method: as §1, §2, §3

## Nc1ncnc2c1ncn2[C@@H]1O[C@H](COP(N)(=O)O)[C@@H](O)[C@H]1O [AMP-NH2, Adenosine 5′-monophosphoramidate]
[1]; 12 h incubation, 37° C.
  Extent of hydrolysis to AMP: complete hydrolysis
[1]; pH 7.0, 37° C., 5 mM, averaged for 15 min and 30 min
  Hydrolysis rate by E. coli cell lysates: 76.3 (±20.9) nmol mg^−1 min^−1
Yeast HNT
  Velocity: 7.57^b nmol/μg/min
[2]
  AMP formation with lysates of hinT deletion strain BB1: no AMP formation could be observed
[2]; 0.2 mg protein, 30 min
  Specific activity: 0 nmol/mg/min
[2]; 0.5 mg protein, 30 min
  Specific activity: 0 nmol/mg/min
[2]; 0.5 mg protein, 70 min
  Specific activity: 0 nmol/mg/min
[2]; 0.5 mg protein, 1380 min
  Specific activity: 0 nmol/mg/min
[2]; average
  Average specific activity: 0 nmol/mg/min
[3]
  Specific activity of BL21 Star WT cell lysates: 20.1 (±7.7) nmol mg^−1 min^−1
[3]; 30 min
  Specific activity: 15.5 nmol/mg/min
[3]; 70 min
  Specific activity: 26.4 nmol/mg/min
[3]; average
  Average specific activity: 20.95 ± 7.71 nmol/mg/min
